This note sets out measurements from patent US5612174A, “Photographic yellow dye-forming couplers and silver halide color photographic materials containing the same” (Fuji Photo Film Co., Ltd., priority 1994, dated 1997).

Data set [1] is described as follows: Solubility of yellow couplers in 100 ml of ethyl acetate at 25° C. Type of data set: physicochemical. The conditions noted are these: for Solubility: 25° C.; for solubility in ethyl acetate relative to RY-1 and RY-2: in words. As to the method: Test for Solubility of Yellow Couplers in Organic Solvents:
A test was conducted in order to determine what grams of the yellow coupler shown in Table A below are dissolved in 100 ml of ethyl acetate at 25° C. The yellow coupler was gradually added to 100 ml of ethyl acetate by 0.1 g at a time and stirred for 5 minutes, whereupon the amount not dissolved was referred to as a saturation point. The results are shown in Table A. As comparative couplers, used were the following RY-1 and RY-2. [drawing 15]
Solubility of Couplers in 100 ml of
Ethyl Acetate (at 25° C.)

A short description of data set [2]: Solubility of yellow couplers in high boiling point organic solvents Solv-2, Solv-3 and Solv-9. Type of data set: physicochemical. The conditions noted are these: in words. As to the method: The same test as above was conducted to determine the solubility of the yellow couplers in known high boiling point organic solvents Solv-2, Solv-3 and Solv-9 mentioned below.

`CCC(Oc1ccc(C(C)(C)CC)cc1C(C)(C)CC)C(=O)Nc1ccc(Cl)c(NC(=O)C(C(=O)C(C)(C)C)N2C(=O)NC(C)(C)C2=O)c1` (centres unmarked) [RY-1, reference compound] registered a Solubility in data set [1] of 15.8 g/100 ml.
Same read-out and setting: as for `CCCCCCCCCCCCCCCCCC(=O)Nc1ccc(Cl)c(NC(=O)C(C(=O)C(C)(C)C)N2C(=O)NC(C)(C)C2=O)c1` (centres unmarked) [RY-2, reference compound], the figure is 8.5 g/100 ml.
Regarding `CCCCCCCCC=CCCCCCCCC(=O)Nc1ccc(Cl)c(NC(=O)C(C(=O)C(C)(C)C)N2C(=O)NC(C)(C)C2=O)c1` (centres unmarked) [Y-1], in data set [1], the Solubility stood at 21.0 g/100 ml; the “solubility in ethyl acetate relative to RY-1 and RY-2” value is “much larger solubility in ethyl acetate than the known yellow couplers of RY-1 and RY-2”. In data set [2], the “solubility in known high boiling point organic solvents relative to RY-1 and RY-2” value was “much larger solubility in such solvents than the known yellow couplers of RY-1 and RY-2”.
As for `CCCCCC=CCC=CCCCCCCCC(=O)Nc1ccc(Cl)c(NC(=O)C(C(=O)C(C)(C)C)N2C(=O)NC(C)(C)C2=O)c1` (centres unmarked) [Y-2], in data set [1], the Solubility stood at 21.2 g/100 ml; the “solubility in ethyl acetate relative to RY-1 and RY-2” value was “much larger solubility in ethyl acetate than the known yellow couplers of RY-1 and RY-2”. Moreover, in data set [2], the “solubility in known high boiling point organic solvents relative to RY-1 and RY-2” value is “much larger solubility in such solvents than the known yellow couplers of RY-1 and RY-2”.
For the compound `CCC=CCC=CCC=CCCCCCCCC(=O)Nc1ccc(Cl)c(NC(=O)C(C(=O)C(C)(C)C)N2C(=O)NC(C)(C)C2=O)c1` (centres unmarked) [Y-3], in data set [1], the Solubility is given as 21.4 g/100 ml; the “solubility in ethyl acetate relative to RY-1 and RY-2” value is “much larger solubility in ethyl acetate than the known yellow couplers of RY-1 and RY-2”. In data set [2], the “solubility in known high boiling point organic solvents relative to RY-1 and RY-2” value was “much larger solubility in such solvents than the known yellow couplers of RY-1 and RY-2”.
For `CCCCCCCCC=CCCCCCCCC(=O)Nc1ccc(OC)c(NC(=O)C(C(=O)C(C)(C)C)N2C(=O)NC(C)(C)C2=O)c1` (centres unmarked) [Y-13], in data set [1], the Solubility is listed as 20.8 g/100 ml; the “solubility in ethyl acetate relative to RY-1 and RY-2” value was “much larger solubility in ethyl acetate than the known yellow couplers of RY-1 and RY-2”. For the same compound, the “solubility in known high boiling point organic solvents relative to RY-1 and RY-2” value in data set [2] was “much larger solubility in such solvents than the known yellow couplers of RY-1 and RY-2”.
